Values after ≈ are worked out from the molar mass of the structure shown. Like-named read-outs stand apart in the source and are kept apart here.
Key:
Candida tropicalis 85-8 = experiment: MIC, two-fold agar dilution, C. tropicalis 85-8; format: cell-based; details: 858, YMA pH 7.0, 28° C., 40 hours
Protocol: (§1) Minimum inhibitory concentrations (MICs) of nine 4'-N-substituted pradimicin derivatives were determined by two-fold agar dilution method on phosphate-buffered yeast morphology agar (YMA, pH 7.0, Difco Laboratories). A 5-μl of fungal cell suspension containing 2×10^6 cells/ml (2×10^7 cells/ml for Trichophyton mentagrophytes) were spotted on the surface of the agar plates containing test compound. MICs were recorded after 40-hour incubation at 28° C. except for T. mentagrophytes, which required 60-hour incubation to produce visually evaluable growth on the drug-free control plates and were defined as the lowest antibiotic concentrations showing no growth or less than five discrete colonies per spot.
(§2) Medium: yeast morphology agar + 1/15 M phosphate buffer (pH 7.0)
(§3) Incubation conditions: 28° C., 40 hours (C. albicans ATCC 38247 & T.
(§4) Medium: Yeast morphology agar + 1/15 phosphate buffer (pH 7.0).

[1] = test system: Trichophyton mentagrophytes #4329; experiment: MIC, two-fold agar dilution, T. mentagrophytes #4329; format: cell-based
Protocol: as §1, §2, §3
(§5) mentagrophytes #4329: 28° C., 60 hours).
as §4

Candida albicans 83-2-14 = experiment: MIC, two-fold agar dilution, C. albicans 83-2-14; format: cell-based; details: 83214, YMA pH 7.0, 28° C., 40 hours
Protocol: as §1, §2, §3, §4

[2] = test system: Candida albicans IAM 4888; experiment: MIC, two-fold agar dilution, C. albicans IAM 4888; format: cell-based; details: IAM4888, YMA pH 7.0, 28° C., 40 hours
Protocol: as §1, §2, §3, §4

[3] = test system: Cryptococcus neoformans D49; experiment: MIC, two-fold agar dilution, C. neoformans D49; format: cell-based; details: YMA pH 7.0, 28° C., 40 hours
Protocol: as §1, §2, §3, §4

[4] = test system: Candida tropicalis IFO 10241; experiment: MIC, two-fold agar dilution, C. tropicalis IFO 10241; format: cell-based; details: IFO10241, YMA pH 7.0, 28° C., 40 hours
Protocol: as §1, §2, §3, §4

[5] = test system: Saccharomyces cerevisiae ATCC 9763; experiment: MIC, two-fold agar dilution, S. cerevisiae ATCC 9763; format: cell-based; details: ATCC9763, YMA pH 7.0, 28° C., 40 hours
Protocol: as §1, §2, §3, §4

[6] = test system: Cryptococcus neoformans IAM 4514; experiment: MIC, two-fold agar dilution, C. neoformans IAM 4514; format: cell-based; details: IAM4514
Protocol: as §1, §2, §3, §4

Candida albicans A9540 [7] = experiment: MIC, two-fold agar dilution, C. albicans A9540; format: cell-based
Protocol: as §1, §2, §3, §4

[8] = test system: Aspergillus fumigatus IAM 2034; experiment: MIC, two-fold agar dilution, A. fumigatus IAM 2034; format: cell-based; details: IAM2034
Protocol: as §1, §2, §3, §4

[9] = test system: Candida albicans ATCC 32354; experiment: MIC, two-fold agar dilution, C. albicans ATCC 32354; format: cell-based; details: ATCC32354, YMA pH 7.0, 28° C., 40 hours
Protocol: as §1, §2, §3, §4

[10] = test system: Candida albicans ATCC 38247; experiment: MIC, two-fold agar dilution, C. albicans ATCC 38247; format: cell-based; details: ATCC38247, YMA pH 7.0, 28° C., 60 hours (table footnote)
Protocol: as §1, §2, §3, §5, §4

Candida albicans A9540 [11] = experiment: animal or person; format: in vivo, male ICR mice infected with Candida albicans A9540
Protocol: The in vivo therapeutic efficacies of seven 4'-N-substituted pradimicin derivatives, KHM-1, KHM-2, KHM-3, KHM-4, KHM-5, KHM-6 and KHM-7 were evaluated in the mouse infected with Candida albicans A9540 and Aspergillus fumigatusIAM 2034. Groups of five specific-pathogen-free male ICR mice weighing 20-25 g at each dose level were intravenously infected with approximately 10 times the 50% lethal dose of C. albicans A9540 (1×10^6 cells/mouse) or A. fumigatus IAM 2034 (1×10^7 cells/mouse). Immediately after the fungal infection, test compounds dissolved with 10% DMSO in distilled water were intravenously given to the mouse at the dosed volume of 0.1 ml/10 g of body weight. […] Untreated control animals died 7 to 13 days post-infection.

[12] = Table 3, Trichophyton mentagrophytes #4329, YMA, read-out: MIC TM-4
[13] = Trichophyton mentagrophytes #4329, YMA pH 7.0, 28° C., 60 hours, read-out: MIC
[14] = Cryptococcus neoformans IAM 4514, YMA pH 7.0, 28° C., 40 hours, read-out: MIC
[15] = Table 3, Cryptococcus neoformans IAM 4514, YMA, read-out: MIC Cn-2
[16] = Candida albicans A9540, YMA pH 7.0, 28° C., 40 hours, read-out: MIC
[17] = Table 3, Candida albicans A9540, YMA, read-out: MIC Ca-4
[18] = Aspergillus fumigatus IAM 2034, YMA pH 7.0, 28° C., 40 hours, read-out: MIC
[19] = Table 3, Aspergillus fumigatus IAM 2034, YMA, read-out: MIC Af-3

MIC (Candida tropicalis 85-8)	MIC [1, 12]	MIC [1, 13]	MIC (Candida albicans 83-2-14)	MIC [2]	MIC [3]	MIC [4]	MIC [5]	MIC [6, 14]	MIC [6, 15]	MIC (Candida albicans A9540 [7]; [16])	MIC (Candida albicans A9540 [7]; [17])	MIC [8, 18]	MIC [8, 19]	MIC [9]	Compound	other results
> 100 mg/L	3.1 mg/L (≈ 3.57 µM)	3.1 mg/L (≈ 3.57 µM)	> 100 mg/L	12.5 mg/L (≈ 14.4 µM)	6.3 mg/L (≈ 7.25 µM)	> 100 mg/L	25 mg/L (≈ 28.8 µM)	6.3 mg/L (≈ 7.25 µM)	6.3 mg/L (≈ 7.25 µM)	12.5 mg/L (≈ 14.4 µM)	12.5 mg/L (≈ 14.4 µM)	3.1 mg/L (≈ 3.57 µM)	3.1 mg/L (≈ 3.57 µM)	12.5 mg/L (≈ 14.4 µM)	COc1cc(O)c2c(c1)C(=O)c1c(cc3c(c1O)-c1c(cc(C)c(C(=O)N[C@H](C)C(=O)O)c1O)[C@H](O[C@@H]1O[C@H](C)[C@H](NC(=N)N)[C@H](O[C@@H]4OC[C@@H](O)[C@H](O)[C@H]4O)[C@H]1O)[C@H]3O)C2=O [KHM-8, 4'-Guanidinopradimicin C]	–
50 mg/L (≈ 58.6 µM)	3.1 mg/L (≈ 3.63 µM)	3.1 mg/L (≈ 3.63 µM)	12.5 mg/L (≈ 14.6 µM)	6.3 mg/L (≈ 7.38 µM)	12.5 mg/L (≈ 14.6 µM)	> 100 mg/L	1.6 mg/L (≈ 1.87 µM)	3.1 mg/L (≈ 3.63 µM)	3.1 mg/L (≈ 3.63 µM)	12.5 mg/L (≈ 14.6 µM)	12.5 mg/L (≈ 14.6 µM)	1.6 mg/L (≈ 1.87 µM)	1.6 mg/L (≈ 1.87 µM)	6.3 mg/L (≈ 7.38 µM)	COc1cc(O)c2c(c1)C(=O)c1c(cc3c(c1O)-c1c(cc(C)c(C(=O)N[C@H](C)C(=O)O)c1O)[C@H](O[C@@H]1O[C@H](C)[C@H](NC=N)[C@H](O[C@@H]4OC[C@@H](O)[C@H](O)[C@H]4O)[C@H]1O)[C@H]3O)C2=O [KHM-9, 4'-Amidinopradimicin C]	–

Compound	MIC (Candida tropicalis 85-8)	MIC [1, 12]	MIC [1, 13]	MIC (Candida albicans 83-2-14)	MIC [2]	MIC [3]	MIC [4]	MIC [5]	MIC [6, 14]	MIC [6, 15]	MIC (Candida albicans A9540 [7]; [16])	MIC (Candida albicans A9540 [7]; [17])	MIC [8, 18]	MIC [8, 19]	MIC [9]	other results
COc1cc(O)c2c(c1)C(=O)c1c(cc3c(c1O)-c1c(cc(C)c(C(=O)N[C@H](C)C(=O)O)c1O)[C@H](O[C@@H]1O[C@H](C)[C@H](N)[C@H](O[C@@H]4OC[C@@H](O)[C@H](O)[C@H]4O)[C@H]1O)[C@H]3O)C2=O [Pradimicin C]	100 mg/L (≈ 121 µM)	3.1 mg/L (≈ 3.75 µM)	3.1 mg/L (≈ 3.75 µM)	50 mg/L (≈ 60.5 µM)	–	0.8 mg/L (≈ 0.968 µM)	100 mg/L (≈ 121 µM)	6.3 mg/L (≈ 7.62 µM)	0.8 mg/L (≈ 0.968 µM)	0.8 mg/L (≈ 0.968 µM)	25 mg/L (≈ 30.2 µM)	25 mg/L (≈ 30.2 µM)	3.1 mg/L (≈ 3.75 µM)	3.1 mg/L (≈ 3.75 µM)	6.3 mg/L (≈ 7.62 µM)	MIC [10]: 3.1 mg/L (≈ 3.75 µM); ED50 (Candida albicans A9540 [11]; 480 h, Table 3, Candida albicans A9540, iv, read-out: PD50 (mice) Ca-4): 14 mg/kg; responders at 6.3 mg/kg (Candida albicans A9540 [11]; Candida albicans, A9540, 480 h, C. albicans, mice, 6.3 mg/kg iv, 20th day post-infection, read-out: S/T (No. of survivors/tested) (converted)): 40%; responders at 12.5 mg/kg (Candida albicans A9540 [11]; Candida albicans, A9540, 480 h, C. albicans, mice, 12.5 mg/kg iv, 20th day post-infection, read-out: S/T (No. of survivors/tested) (converted)): 40%; responders at 25 mg/kg (Candida albicans A9540 [11]; Candida albicans, A9540, 480 h, C. albicans, mice, 25 mg/kg iv, 20th day post-infection, read-out: S/T (No. of survivors/tested) (converted)): 100%; responders at 50 mg/kg (Candida albicans A9540 [11]; Candida albicans, A9540, 480 h, C. albicans, mice, 50 mg/kg iv, 20th day post-infection, read-out: S/T (No. of survivors/tested) (converted)): 0%; ED50 (Candida albicans A9540 [11]; Candida albicans, A9540, 480 h, Table 2, C. albicans, mice, iv, 95% confidence limits in parentheses, read-out: PD50 (50% protection dose)): 13 mg/kg

From US6281342A, “Pradimicin compounds” (Bristol-Myers Squibb Company, priority 1994, dated 2001)
